# Measured values: patent US7988944B2, “Peroxide decomposition catalyst” (Sumitomo Chemical Company, Limited, priority 2005, dated 2011)
# How the values were obtained:
# [1] = Solubility test of catalyst in DMF; format: physicochemical; details: for Weight of peroxide decomposition catalyst residue which remained undissolved in DMF: about 20 mg catalyst, DMF 5.00 ml in total, residue on filter paper dried and weighed; for Solubility: catalyst 20.0±0.1 mg in 5.0 ml DMF, equation 3; for solubility (in words): from Table 1, DMF
# Experimental: Herein, as an index of solubility in a peroxide decomposition catalyst, solubility of a peroxide decomposition catalyst (20.0±0.1 mg) in a constant amount (5.0 ml) of dimethylformamide (hereinafter abbreviated as DMF) can be used. The solubility as used herein is represented by the following (equation 3).
# First, a filter paper (No 5B φ21 m/m) for Kiriyama funnel was dried (100° C., under 200 pa reduced pressure, 6 h), and this was weighed. Then, a peroxide decomposition catalyst (20.0±0.1 mg) and DMF (2.00 ml) were weighed in a 8 ml glass sample tube containing a stirrer, and this was stirred with a magnetic stirrer for 5 minutes. This mixture was transferred with a 2 ml pipette to a glass Kiriyama funnel (φ21 mm) in which the dried filter paper was spread, and this was suction-filtered. The sample tube, the stirrer and the pipette which were used, were washed with DMF several times (total amount 3.00 ml), and the attached catalyst and DMF washing solution were transferred to the Kiriyama funnel, and these were suction-filtered together. Thereafter, the residue on the filter paper, and the filter paper together with the Kiriyama funnel were dried (100° C., under 200 pa reduced pressure, 24 h) in a vacuum oven. After drying, the filter paper, and the residue on the filter paper were weighed, and a dry filter paper weight before filtration was subtracted from this weight to obtain a weight of the peroxide decomposition catalyst residue which remained undissolved in DMF. From this, solubility indicated by the (equation 3) was calculated.
# [2] = Hydrogen peroxide decomposition test in the presence of poly(sodium 4-styrenesulfonate); details: 80° C.; for V(O2), generated oxygen volume: 20 minutes, pH4.0 tartrate buffer/ethylene glycol, 2.28 mmol H2O2, blank corrected, 0° C. and 101325 Pa; for N(O2), mole number of oxygen molecule generated per 20 minutes: oxygen regarded as ideal gas
# Experimental: To a mixture of 8.41 μmol (per one metal atom) of a catalyst and 21.1 mg of poly(sodium 4-styrenesulfonate) (product commercially available from Aldrich, weight average molecular weight: about 70,000) are added 1.00 ml of a tartaric acid/sodium tartrate buffer (pH4.0) and 1.00 ml of ethylene glycol. After this catalyst mixture is stirred at 80° C. for 5 minutes, 0.20 ml of an 11.4 mol/l aqueous hydrogen peroxide solution is added, and the mixture is stirred at 80° C. for 20 minutes. A volume of oxygen generated thereupon is measured with a gas burette, and an amount of decomposed hydrogen peroxide is calculated. Thereafter, this reaction solution is diluted and filtrated, and the filtrate is measured by gel permeation chromatography (GPC), thereby, a weight average molecular weight of poly(sodium 4-styrenesulfonate) after a test is obtained. The GPC analysis condition will be shown below. Column: TSKgel α-M (13 μm, 7.8 mmφ×30 cm) manufactured by Tosoh Corporation, column temperature: 40° C., mobile phase: 50 mmol/l aqueous ammonium acetate solution: CH3CN=7:3 (v/v), flow rate: 0.6 ml/min, detector: RI, injection amount: 50 μl. A weight average molecular weight was obtained as a value in terms of polyethylene oxide. The A value is obtained by the (equation 1), and the B value is obtained by the (equation 2).
# Mn-bbpr (4.90 mg, 8.41 μmol (per one metal atom)), and poly(sodium 4-sutyrenesulfonate)(21.1 mg (product commercially available from Aldrich, weight average molecular weight: about 70,000)) were weighed in a two-necked flask (25 ml), and a tartaric acid/sodium tartrate buffer (1.00 ml (prepared from 0.20 mol/l tartaric acid aqueous solution and 0.10 mol/l sodium tartrate aqueous solution, pH4.0)) and ethylene glycol (1.00 ml) as a solvent were added thereto, followed by stirring. This was used as a catalyst mixed solution.
# Septum was attached to one of inlets of the two-necked flask containing this catalyst mixed solution, and the other inlet was collected to a gas burette. This flask was stirred at 80° C. for 5 minutes, a hydrogen peroxide aqueous solution (11.4 mol/l, 0.20 ml (2.28 mmol)) was added via a syringe, and a hydrogen peroxide decomposition reaction was performed at 80° C. for 20 minutes. Generated oxygen was measured with a gas burette, and decomposed hydrogen peroxide was quantitated. An amount of generated oxygen was corrected based on the following blank test. Thereafter, the reaction solution was diluted with a water/acetonitrile mixed solution (water:acetonitrile=7:3 (v/v)) to a solution amount of 10.0 ml, and this solution was filtered with a syringe filter. This filtrate was GPC-measured, and a weight average molecular weight of poly (sodium 4-sutyrenesulfonate) after a test was obtained.
# Poly(sodium 4-styrenesulfonate) after the hydrogen peroxide decomposition test was GPC-analyzed. The analyzing conditions are shown below. Column: TSKgel α-M (13 μm, 7.8 mmφ×30 cm) manufactured by Tosoh Corporation, column temperature: 40° C., mobile phase: 50 mmol/l ammonium acetate aqueous solution: CH3CN=7:3 (v/v), flow rate: 0.6 ml/min, detector: RI, in injection amount: 50 μl. A weight average molecular weight was obtained as a value in terms of polyethylene oxide.
# An amount of decomposed hydrogen peroxide was obtained from a volume of oxygen generated in the hydrogen peroxide decomposition test.
Weight of peroxide decomposition catalyst residue which remained undissolved in DMF [1] [mg],Solubility [1] [%],solubility (in words) [1],Structure (SMILES),"V(O2), generated oxygen volume [2] [mL]","N(O2), mole number of oxygen molecule generated per 20 minutes [2] [mmol]"
17.5,12.9,low solubility,"[Co+2].c1ccc2c(c1)-c1nc-2nc2[n-]c(nc3nc(nc4[n-]c(n1)c1ccccc41)-c1ccccc1-3)c1ccccc21 [Cobalt phthalocyanine, cobalt phthalocyanine]",4.9,0.219
17.9,11.0,low solubility,"[Fe+2].c1ccc2c(c1)-c1nc-2nc2[n-]c(nc3nc(nc4[n-]c(n1)c1ccccc41)-c1ccccc1-3)c1ccccc21 [Iron phthalocyanine, iron phthalocyanine]",14.33,0.64
17.3,13.1,low solubility,"[Cu+2].c1ccc2c(c1)-c1nc-2nc2[n-]c(nc3nc(nc4[n-]c(n1)c1ccccc41)-c1ccccc1-3)c1ccccc21 [Copper phthalocyanine, copper phthalocyanine]",0.00,0.00

# Second part, the compound before the results:
Structure (SMILES),Weight of peroxide decomposition catalyst residue which remained undissolved in DMF [1] [mg],Solubility [1] [%],solubility (in words) [1],"V(O2), generated oxygen volume [2] [mL]","N(O2), mole number of oxygen molecule generated per 20 minutes [2] [mmol]"
O.O.[Na+].[Na+].[O]=[W](=[O])([O-])[O-] [Sodium tungstate dihydrate],16.5,17.8,low solubility,,
CC(C)(C)c1ccc2c(c1)C1=Nc3c4cc(C(C)(C)C)ccc4c4[n]3[Fe][n]3c(c5ccc(C(C)(C)C)cc5c3=NC3=NC(=N4)c4cc(C(C)(C)C)ccc43)=NC2=N1 [Fe-pcy (^tBu)],0.03,99.8,high solubility,1.40,0.0625
